The record followed here is patent US10370373B2, “Antitumor derivatives for differentiation therapy” (THE CLEVELAND CLINIC FOUNDATION, priority 2016, dated 2019).

Holding throughout (assay type): cell-based
Data set [1] concerns THP1 AML cells. Put plainly: CD11b / CD14 differentiation marker flow cytometry. The note with it: THP-1 cells, 5 days after treatment. As for the experimental part:
(§1) E) Elevation of differentiation markers CD11b and CD14. […] G) Upregulation of p27 (CDKN1B) (ED3 lysates were unavailable).
(§2) (A) CD11b flow cytometry was performed on THP-1 cells 5 days after the indicated treatments. (B) Annexin-PI flow cytometry of the same cells to determine the percent of cells that were undergoing apoptosis after treatments with the different compounds. Camptothecin is a positive apoptosis inducer.

For another data set, the system named is THP-1 cells. Put plainly: Annexin-PI flow cytometry for apoptosis. Conditions: 5 days after treatment. The method, then: as §2
For data set [2], the system named is THP1 AML cells. The experiment in a line: cell number / growth of THP1 AML cells. Conditions: derivatives at 1 mM vs ED2 at 10 μM.
Text: as §1

Data set [3] can be described thus: cell viability (zolpidem).

`CCCCSc1ccc2nc(-c3ccc(OCCCN)cc3)cn2c1` [NH2, 3-(4-(6-(butylthio)imidazo[1,2-a]pyridin-2-yl)phenoxy)propan-1-amine]: in the data set with THP1 AML cells [1], the “differentiation induction via CD11b flow cytometry versus decitabine and ED2” value is “better differentiation inducers than decitabine (DAC) and ED2”. Further, the “activation of apoptosis pathway (Annexin-PI)” value with THP-1 cells is on record as “do not activate the apoptosis pathway”. Further, in the data set with THP1 AML cells [2], the “growth inhibitory activity against THP-1 cells versus ED2” value is listed as “more potent growth inhibitory activity”.
Regarding `O=C(O)CCCC[C@@H]1SC[C@@H]2NC(=O)N[C@@H]21` [biotin], the “differentiation induction via CD11b flow cytometry versus decitabine and ED2” value with THP1 AML cells [1] was “better differentiation inducers than decitabine (DAC) and ED2”. The “activation of apoptosis pathway (Annexin-PI)” value in the data set on THP-1 cells was “do not activate the apoptosis pathway”. Further, the “growth inhibitory activity against THP-1 cells versus ED2” value in the data set on THP1 AML cells [2] is recorded as “more potent growth inhibitory activity”.
In the case of `Cc1ccc(-c2nc3ccc(C)cn3c2CC(=O)N(C)C)cc1` [zolpidem], the cell viability result in data set [3] is recorded as “does not affect cell viability”.
